pIC50: −log10 of the molar value.
Molecular target: human DGKζ (Homo sapiens (Human), UniProt Q13574)
Assay: Human DGKζ kinase activity inhibition assay (ADP-Glo)
Assay type: biochemical
Details: in vitro human DGKζ kinase activity inhibition assay; read-out: IC50
Outline: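 ADP-Glo luminescence, reflecting ADP produced, served as the readout of activity. Full-length human DGKζ, FLAG-tagged at the C-terminus and insect-cell expressed, was used; lipid substrate mix was sonicated with octyl-β-D-glucopyranoside in 50 mM MOPS pH 7.4.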

Sequence of human DGKζ (Q13574 other isoform, or with tags, fused parts or gaps): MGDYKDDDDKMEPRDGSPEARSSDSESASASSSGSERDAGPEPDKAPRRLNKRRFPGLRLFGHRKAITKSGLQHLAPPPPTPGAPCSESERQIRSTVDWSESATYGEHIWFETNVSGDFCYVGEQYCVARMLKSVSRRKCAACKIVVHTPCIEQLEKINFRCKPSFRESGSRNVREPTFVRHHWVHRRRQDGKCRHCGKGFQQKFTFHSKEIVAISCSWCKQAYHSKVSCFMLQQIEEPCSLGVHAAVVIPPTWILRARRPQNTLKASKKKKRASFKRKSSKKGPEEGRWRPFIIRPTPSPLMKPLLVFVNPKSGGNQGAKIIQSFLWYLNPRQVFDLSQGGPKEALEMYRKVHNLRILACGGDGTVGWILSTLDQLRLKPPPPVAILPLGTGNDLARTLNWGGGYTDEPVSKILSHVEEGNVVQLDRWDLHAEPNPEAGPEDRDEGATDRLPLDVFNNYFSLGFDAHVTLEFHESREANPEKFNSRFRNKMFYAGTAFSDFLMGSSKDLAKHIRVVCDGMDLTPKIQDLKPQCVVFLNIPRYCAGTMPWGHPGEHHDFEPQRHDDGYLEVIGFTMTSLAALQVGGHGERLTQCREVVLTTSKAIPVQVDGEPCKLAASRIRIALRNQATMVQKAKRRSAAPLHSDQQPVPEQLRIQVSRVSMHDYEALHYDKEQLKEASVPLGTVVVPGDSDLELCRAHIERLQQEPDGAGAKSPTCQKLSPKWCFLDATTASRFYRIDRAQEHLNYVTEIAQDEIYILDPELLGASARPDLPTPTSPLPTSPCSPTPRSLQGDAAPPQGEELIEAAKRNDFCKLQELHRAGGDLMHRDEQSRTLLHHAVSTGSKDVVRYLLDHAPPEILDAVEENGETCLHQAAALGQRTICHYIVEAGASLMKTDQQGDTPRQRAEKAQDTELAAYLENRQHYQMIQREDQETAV

Row | pIC50 | SMILES
1 | 7.51 | CC(C(N)=O)N(c1ccc(OC(F)(F)F)c(F)c1)c1nc(N)c(C(=O)c2ccc(OC(F)F)nc2)s1 (racemic) [Example 221, rac-2-[N-[4-amino-5-[6-(difluoromethoxy)pyridine-3-carbonyl]thiazol-2-yl]-3-fluoro-4-(trifluoromethoxy)anilino]propanamide]
2 | 6.65 | CC(C(N)=O)N(c1ccc(C#N)c(F)c1)c1nc(N)c(C(=O)c2ccccc2)s1 (racemic) [Example 192, rac-2-(N-(4-amino-5-benzoyl-thiazol-2-yl)-4-cyano-3-fluoro-anilino)propanamide]
3 | 7.46 | CC(C(N)=O)N(c1ccc(Cl)cc1)c1nc(N)c(C(=O)c2ccccc2)s1 (racemic) [Example 34, rac-2-(N-(4-amino-5-benzoyl-thiazol-2-yl)-4-chloro-anilino)propanamide]
4 | 6.73 | CC(C(N)=O)N(c1ccc(F)c(Cl)c1)c1nc(N)c(C(=O)c2ccncc2)s1 (racemic) [Example 160, rac-2-(N-[4-amino-5-(pyridine-4-carbonyl)thiazol-2-yl]-3-chloro-4-fluoro-anilino)propanamide]
5 | 8.01 | Cc1nc(N(c2ccc(F)c(F)c2)C(C)C(N)=O)sc1C(=O)c1ccc(OC(F)F)cc1 (racemic) [Example 55, rac-2-(N-[5-[4-(difluoromethoxy)benzoyl]-4-methyl-thiazol-2-yl]-3,4-difluoro-anilino)propanamide]
6 | 8.02 | CC(C(N)=O)N(c1ccc(Cl)cc1)c1nc(N)c(C(=O)c2ccc(F)cc2)s1 (single isomer, unassigned) [Example 37.2, 2-(N-[4-amino-5-(4-fluorobenzoyl)thiazol-2-yl]-4-chloro-anilino)propanamide]
7 | 7.61 | CC(C(N)=O)N(c1ccc(F)cc1)c1nc(N)c(C(=O)c2ccc(OCC(=O)NCc3ccc(F)cc3)cc2)s1 (racemic) [Example 97, rac-2-(N-[4-amino-5-[4-[2-[(4-fluorophenyl)methylamino]-2-oxo-ethoxy]benzoyl]thiazol-2-yl]-4-fluoro-anilino)propanamide]
8 | 8.52 | CC(C(N)=O)N(c1ccc(F)c(F)c1)c1nc(N)c(C(=O)c2ccc(OCc3ccccc3)cc2)s1 (racemic) [Example 165, rac-2-(N-[4-amino-5-(4-benzyloxybenzoyl)thiazol-2-yl]-3,4-difluoro-anilino)propanamide]
9 | 6.74 | CC(C(N)=O)N(c1ccc(OC(F)(F)F)c(Cl)c1)c1nc(N)c(C(=O)c2ccccc2)s1 (racemic) [Example 211, rac-2-[N-(4-amino-5-benzoyl-thiazol-2-yl)-3-chloro-4-(trifluoromethoxy)anilino]propanamide]
10 | 8.23 | CC(C(N)=O)N(c1ccc(C(F)(F)F)cc1)c1nc(N)c(C(=O)c2ccc(OC(F)F)cc2)s1 (single isomer, unassigned) [Example 43.2]
11 | 6.94 | CC(C(N)=O)N(c1ccc(OC(F)(F)F)cc1)c1nc(N)c(C(=O)c2ccccc2)s1 (racemic) [Example 24, rac-2-[N-(4-amino-5-benzoyl-thiazol-2-yl)-4-(trifluoromethoxy)anilino]propanamide]
12 | 6.45 | COc1ccc(N(c2nc(N)c(C(=O)c3ccccc3)s2)C(C)C(N)=O)cc1F (racemic) [Example 191, rac-2-(N-(4-amino-5-benzoyl-thiazol-2-yl)-3-fluoro-4-methoxy-anilino)propanamide]
13 | 6.24 | CC(C(N)=O)N(c1ccc(F)cc1)c1nc(N)c(C(=O)c2ccc(OCC(=O)NCC(O)CO)cc2)s1 (racemic) [Example 116, 2-(N-[4-amino-5-(4-[2-(2,3-dihydroxypropylamino)-2-oxo-ethoxy]benzoyl]thiazol-2-yl]-4-fluoro-anilino)propanamide]
14 | 7.35 | CC(C(N)=O)N(c1ccc(OC(F)(F)F)c(Cl)c1)c1nc(N)c(C(=O)c2ccc(OC(F)F)cc2)s1 (racemic) [Example 224, rac-2-[N-[4-amino-5-[4-(difluoromethoxy)benzoyl]thiazol-2-yl]-3-chloro-4-(trifluoromethoxy)anilino]propanamide]
15 | 6.57 | CC(C(N)=O)N(c1ccc(F)nc1)c1nc(N)c(C(=O)c2ccccc2)s1 (racemic) [Example 233, rac-2-[(4-amino-5-benzoyl-thiazol-2-yl)-(6-fluoro-3-pyridyl)amino]propanamide]
16 | 6.27 | Cc1ccccc1N(c1nc(N)c(C(=O)c2ccccc2)s1)C(C)C(N)=O (racemic) [Example 77, rac-2-(N-(4-amino-5-benzoyl-thiazol-2-yl)-2-methyl-anilino)propanamide]
17 | 7.21 | CC(C(N)=O)N(c1ccc(F)cc1)c1nc(N)c(C(=O)c2ccc(N(C)C)cc2)s1 (racemic) [Example 180, rac-2-(N-[4-amino-5-[4-(dimethylamino)benzoyl]thiazol-2-yl]-4-fluoro-anilino)propanamide]
18 | 6.54 | CC(C(N)=O)N(c1ccc(F)cc1)c1nc(N)c(C(=O)c2ccc(C(=O)NC3CC3)cc2)s1 (racemic) [Example 266, rac-4-[4-amino-2-(N-(2-amino-1-methyl-2-oxo-ethyl)-4-fluoro-anilino)thiazole-5-carbonyl]-N-cyclopropyl-benzamide]
19 | 6.58 | COc1ccc(N(c2nc(N)c(C(=O)c3ccccc3)s2)C(C)C(N)=O)cc1Cl (racemic) [Example 17, rac-2-(N-(4-amino-5-benzoyl-thiazol-2-yl)-3-chloro-4-methoxy-anilino)propanamide]
20 | 7.18 | CC(C(N)=O)N(c1ccc(OC(F)F)c(Cl)c1)c1nc(N)c(C(=O)c2ccccc2)s1 (racemic) [Example 194, rac-2-[N-(4-amino-5-benzoyl-thiazol-2-yl)-3-chloro-4-(difluoromethoxy)anilino]propanamide]
21 | 5.53 | CC(C(N)=O)N(c1ccc(Cl)cc1)c1nc(N)c(C(=O)c2ccc(Cl)cc2)s1 (single isomer, unassigned) [Example 41.1, 2-(N-[4-amino-5-(4-chlorobenzoyl)thiazol-2-yl]-4-chloro-anilino)propanamide]
22 | 7.44 | CC(C(N)=O)N(c1ccc(F)cc1)c1nc(N)c(C(=O)c2ccc(N3CCCCC3)nc2)s1 (racemic) [Example 283, rac-2-(N-[4-amino-5-[6-(1-piperidyl)pyridine-3-carbonyl]thiazol-2-yl]-4-fluoro-anilino)propanamide]
23 | 6.27 | CC(C(N)=O)N(c1ccc(F)c(OC(F)(F)F)c1)c1nc(N)c(C(=O)c2ccccc2)s1 (racemic) [Example 235, rac-2-[N-(4-amino-5-benzoyl-thiazol-2-yl)-4-fluoro-3-(trifluoromethoxy)anilino]propanamide]
24 | 5.79 | Cc1ccc(N(c2nc(N)c(C(=O)c3ccccc3)s2)C(C)C(N)=O)cn1 (racemic) [Example 234, rac-2-[(4-amino-5-benzoyl-thiazol-2-yl)-(6-methyl-3-pyridyl)amino]propanamide]
25 | 7.24 | Cc1ccc(N(C)C(=O)COc2ccc(C(=O)c3sc(N(c4ccc(F)cc4)C(C)C(N)=O)nc3N)cc2)cc1 (racemic) [Example 139, rac-2-(N-[4-amino-5-[4-[2-(N,4-dimethylanilino)-2-oxo-ethoxy]benzoyl]thiazol-2-yl]-4-fluoro-anilino)propanamide]
26 | 7.29 | COc1ccc(C(=O)c2sc(N(c3ccc(C(F)F)cc3)C(C)C(N)=O)nc2N)cc1 (racemic) [Example 243, rac-2-[N-[4-amino-5-(4-methoxybenzoyl)thiazol-2-yl]-4-(difluoromethyl)anilino]propanamide]

From patent US11964953B2, “Substituted aminothiazoles as DGKzeta inhibitors for immune activation” (Bayer Aktiengesellschaft, priority 2020, dated 2024)
